Experimental data taken from article doi:10.1101/2022.05.23.493001v4 (biorxiv, 2022).
pEC50: −log10 of the molar value.

System: STING in THP-1 cells (endogenous)
Assay: cells
Conditions: Homo sapiens, THP-1, 6 h, read-out: EC50 IFN-β THP-1

pEC50: 5.18
SMILES: CSc1c(Cl)ccc2c(=O)c3ccc(C(C)(C)C)cc3n(CC(=O)O)c12 [SNX281]
